Laboratory results as given in ChEMBL document CHEMBL6178013, “Ferroptosis of Cancer Cells via Tubulin Degradation and Mitochondrial Dysfunction: A Novel Mechanism of Anticancer Effect for Small-Molecule Anion Transporters” (J Med Chem, 2025).
Calls of active or inactive are those of the source. The rule behind the calls is not given here.

Experiments:
Chloride [1] = assay: Binding affinity to chloride anions assessed as chloride efflux in egg-yolk L-alpha-phosphatidylcholine liposome model harboring intravesicular KCl/extravesicular NaNO3
Chloride [2] = assay: Binding affinity to chloride anions assessed as transport of chloride anions across bulky nitrobenzene membrane in U-shaped tube harboring NaCl in donor phase and NaNO3 in receiving phase at 1 mM measured for 12 hrs by chloride ion selective electrode technique
Chloride [3] = assay: Binding affinity to chloride anions in human HeLa cells assessed as decrease in orange fluorescence in cytoplasm at 5 uM incubated for 6 hrs by AO staining based analysis relative to control; type: cell-based; parameters: scale not given: the % may be the effect or the level left
Chloride [4] = assay: Binding affinity to chloride anions in human HeLa cells assessed as increase in green fluorescence in cytoplasm at 5 uM incubated for 6 hrs by AO staining based analysis; type: cell-based
Chloride [5] = assay: Binding affinity to chloride anions in human HeLa cells assessed as decrease in red fluorescence in cytoplasm at 5 uM incubated for 1.5 hrs by MR-(RR)2 staining based analysis; type: cell-based
Chloride [6] = assay: Binding affinity to chloride anions in human HeLa cells assessed as increase in chloride influx at 1 uM measured after 30 to 60 mins by flow cytometry; type: cell-based; conditions: time 30-60 min
A549 = assay: Cytotoxicity against human A549 cells incubated for 48 hrs by MTT assay; type: functional, cell-based; conditions: A549, 48 h
HeLa [7] = assay: Cytotoxicity against human HeLa cells assessed as decrease in cell viability cultured in chloride-containing extracellular medium at 0.05 to 5 uM incubated for 12 hrs; type: functional, cell-based; conditions: dose 0.05-5 µM
HeLa [8] = assay: Cytotoxicity against human HeLa cells assessed as decrease in cell viability cultured in chloride-free extracellular medium at 0.05 to 5 uM incubated for 12 hrs; type: functional, cell-based; conditions: dose 0.05-5 µM
HeLa [9] = assay: Cytotoxicity against human HeLa cells assessed as decrease in cell viability at 0.01 to 10 uM pretreated with Fer-1 followed by compound addition by MTT assay; type: functional, cell-based; conditions: dose 0.01-10 µM
HeLa [10] = assay: Cytotoxicity against human HeLa cells assessed as decrease in cell viability at 0.01 to 10 uM pretreated with Z-VAD-FMK followed by compound addition by MTT assay; type: functional, cell-based; conditions: dose 0.01-10 µM
HeLa [11] = assay: Cytotoxicity against human HeLa cells assessed as decrease in cell viability at 0.01 to 10 uM pretreated with 3-MA followed by compound addition by MTT assay; type: functional, cell-based; conditions: dose 0.01-10 µM
[12] = target: Tubulin beta (Homo sapiens) (UniProt P68371+Q9H4B7+Q13509+P04350+Q3ZCM7+P07437+Q13885+Q9BVA1+Q9BUF5+A6NNZ2); assay: Induction of beta-tubulin degradation in human HeLa cells at 1 uM preincubated with MG132 followed by compound addition measured after 24 hrs by immunoblotting analysis; type: cell-based
Tubulin (Homo sapiens) = Tubulin (Homo sapiens) (UniProt P68371+Q9H4B7+P0DPH7+P68366+Q13509+Q71U36+P04350+Q3ZCM7+P07437+P68363+Q9BQE3+Q6PEY2+Q13885+Q9BVA1+Q9BUF5); assay: Induction of tubulin degradation in human HeLa cells assessed as disruption of tubulin network at 10 uM incubated for 16 hrs by immunofluorescence based analysis; type: cell-based
HeLa [13] = assay: Induction of lipid peroxidation in human HeLa cells assessed as decrease in GSH level incubated for 12 hrs by absorbance based assay; type: functional, cell-based; conditions: dose 0.1-1 µM
HeLa [14] = assay: Induction of lipid peroxidation in human HeLa cells assessed as increase in green fluorescence at 0.1 to 1 uM incubated for 24 hrs by C11-BODIPY-581/591 probe based analysis; type: functional, cell-based; conditions: dose 0.1-1 µM
HeLa [15] = assay: Induction of lipid peroxidation in human HeLa cells assessed as increase in ROS generation incubated for 24 hrs by DCFH-DA probe based fluorescence microscopy; type: functional, cell-based; conditions: dose 0.1-1 µM
HeLa [16] = assay: Induction of ferroptosis in human HeLa cells assessed as increase in Bax level at 0.1 to 1 uM incubated for 24 hrs by immunoblotting analysis; type: functional, cell-based; conditions: dose 0.1-1 µM
[17] = AUC (0 to infinity) in male CD-1 mouse at 1 mg/kg, iv measured for 0.083 to 48 hrs by HPLC/MS/MS analysis; type: ADME, organism-based; conditions: in vivo, time 0.083-48 hrs
[18] = MRT (0 to infinity) in male CD-1 mouse at 1 mg/kg, iv measured for 0.083 to 48 hrs by HPLC/MS/MS analysis; type: ADME, organism-based; conditions: in vivo, time 0.083-48 hrs
[19] = Tmax in male CD-1 mouse at 1 mg/kg, iv measured for 0.083 to 48 hrs by HPLC/MS/MS analysis; type: ADME, organism-based; conditions: in vivo, time 0.083-48 hrs
[20] = Cmax in male CD-1 mouse at 1 mg/kg, iv measured for 0.083 to 48 hrs by HPLC/MS/MS analysis; type: ADME, organism-based; conditions: in vivo, time 0.083-48 hrs
[21] = AUC (0 to infinity) in male CD-1 mouse at 1 mg/kg, ip measured for 0.083 to 48 hrs by HPLC/MS/MS analysis; type: ADME, organism-based; conditions: in vivo, time 0.083-48 hrs
[22] = MRT (0 to infinity) in male CD-1 mouse at 1 mg/kg, ip measured for 0.083 to 48 hrs by HPLC/MS/MS analysis; type: ADME, organism-based; conditions: in vivo, time 0.083-48 hrs
[23] = Half life in male CD-1 mouse at 1 mg/kg, ip measured for 0.083 to 48 hrs by HPLC/MS/MS analysis; type: ADME, organism-based; conditions: in vivo, time 0.083-48 hrs
[24] = Cmax in male CD-1 mouse at 1 mg/kg, ip measured for 0.083 to 48 hrs by HPLC/MS/MS analysis; type: ADME, organism-based; conditions: in vivo, time 0.083-48 hrs
[25] = Oral bioavailability in male CD-1 mouse at 1 mg/kg measured for 0.083 to 48 hrs by HPLC/MS/MS analysis; type: ADME, organism-based; conditions: in vivo, time 0.083-48 hrs
HeLa [26] = assay: Antitumor activity against human HeLa cells xenografted in male Balb/C nude mouse assessed as average tumor size at 10 mg/kg, ip administered on every 2 days measured after 18 days (reference value: 1995.1 mm3); type: functional; conditions: time 18 day
HeLa [27] = assay: Antitumor activity against human HeLa cells xenografted in male Balb/C nude mouse assessed as cell death at 10 to 20 mg/kg, ip administered on every 2 days measured after 18 days by TUNEL immunofluorescence analysis; type: functional, organism-based; conditions: dose 10-20 mg/kg, time 18.0 day
HeLa [28] = assay: In vivo induction of ferroptosis in human HeLa cells xenografted in male Balb/C nude mouse assessed as increase in cleaved PARP level administered intraperitoneally on every 2 days measured after 18 days by immunoblotting analysis; type: functional, organism-based; conditions: dose 10-20 mg/kg, route ip, time 18.0 day
[29] = Toxicity in male Balb/C nude mouse xenografted with human HeLa cells assessed as abnormalities in liver at 10 to 20 mg/kg, ip administered on every 2 days measured after 18 days by H and E staining based analysis; type: organism-based; conditions: in vivo, 432 h, dose 10-20 mg/kg, time 18 day
[30] = Toxicity in male Balb/C nude mouse xenografted with human HeLa cells assessed as abnormalities in kidney at 10 to 20 mg/kg, ip administered on every 2 days measured after 18 days by H and E staining based analysis; type: organism-based; conditions: in vivo, 432 h, dose 10-20 mg/kg, time 18 day
[31] = Drug concentration in plasma of C57BL/6 mouse at 5 mg/kg, iv measured after 4 hrs by HPLC/MS/MS analysis; type: ADME, organism-based
[32] = Toxicity in male Balb/C nude mouse xenografted with human HeLa cells assessed as abnormalities in brain at 10 to 20 mg/kg, ip administered on every 2 days measured after 18 days by H and E staining based analysis; type: organism-based; conditions: in vivo, 432 h, dose 10-20 mg/kg, time 18 day

Activity (Chloride [1]): Active
Activity (Chloride [2]): Active
Activity [12]: inactive
Activity (Tubulin (Homo sapiens)): Active
AUC(0-inf) [17]: 17.8 µg·h/mL
MRT inf [18]: 3.14 h
Tmax [19]: 4.8 min
Cmax [20]: 22.7 µg/mL
AUC(0-inf) [21]: 4.61 µg·h/mL
MRT inf [22]: 14.8 h
half-life [23]: 19.9 h
Cmax [24]: 0.27 µg/mL
bioavailability [25]: 22%
concentration at 4 h [31]: 99.2 µM
SMILES: Fc1cc(-c2nc3c(C(F)(F)F)cc(C(F)(F)F)cc3[nH]2)cc(-c2nc3c(C(F)(F)F)cc(C(F)(F)F)cc3[nH]2)c1
Activity (Chloride [3]): 100%
Activity (Chloride [4]): Active; The Result Indicates That Compound Basify Acidic Organelles
Activity (Chloride [5]): Active; The Result Reveals That Compound Can Alkalize Lysosomes
Activity (Chloride [6]): Active
IC50 (A549): 1.68 µM
Activity (HeLa [7]): Active
Activity (HeLa [8]): inactive
Activity (HeLa [9]): inactive
Activity (HeLa [10]): Not active; Z-Vad-Fmk Exhibited Partial Protection For Cells
Activity (HeLa [11]): Active
Activity (HeLa [13]): Dose-dependent-effect
Activity (HeLa [14]): Active
Activity (HeLa [15]): Dose-dependent-effect
Activity (HeLa [16]): Active
Activity (HeLa [26]): 850.9 mm3
Activity (HeLa [27]): Active
Activity (HeLa [28]): Dose-dependent-effect
Activity [29]: Non-toxic
Activity [30]: Non-toxic
Activity [32]: Non-toxic
